Measured values published in PMC12435690, “KYLO-0603, a novel liver-targeting, thyroid hormone receptor-β agonist for the inhibition of MASH progression” (PLOS One, 2025).

Tests used:
[1] = system: MASH mouse model (F2 ~ 3); test: MASH mouse model (F2~3) induced with HFD and CCl4; assay type: in vivo, C57BL/6J mice; set-up: Steatosis score / Lobular inflammation score / Ballooning score / NAFLD activity score / Fibrosis Score: scale not given here
Description: A total of 80 5-week-old C57BL/6J male mice were randomly assigned to two groups based on their body weight: a control group (n = 10) and a high-fat diet group (HFD, D12492, n = 70). During the eight-week feeding period, the mice in the two groups were provided with the corresponding diets, including shavings bedding, and their weights were recorded once a week. The change of the weight of each group of mice at a given time were recorded. […] The control diet group was provided with a control diet supplemented with the solvent vehicle, while the HFD control group was given a high-fat diet with the same supplement. The remaining […] groups were provided a high-fat diet containing the solvent and administered a range of doses of Kylo-0603, namely, 0.1 mg/kg, 0.3 mg/kg, 1 mg/kg, 3 mg/kg, and 10 mg/kg. The HFD control group was administered intraperitoneal injections of 0.2 ml/kg CCl4 twice a week for 8 weeks, during which time the mice were fed the same diets as before. The mice were weighed weekly, and the dosage for each week was determined based on their body weight at the commencement of that week. After a period of fasting of between 5 and 6 hours on the day following the final administration of the drug, the mice in each group were euthanized, whole blood was collected from either the orbits or the heart, and the serum was separated and stored at −80°C. The heart and liver tissues of the mice in each group were weighed and photographed. The heart tissues were then quickly frozen in liquid nitrogen and stored in a refrigerator at −80°C, and the middle lobe of the liver was divided into four parts. Two of these samples were quickly frozen in liquid nitrogen and stored at −80°C (for RNA sequencing). The remaining two portions were fixed in a 4% Paraformaldehyde solution and subsequently dehydrated for paraffin embedding and OCT embedding. […] For the quantification of hepatic lipid content, liver tissues were meticulously homogenized in isopropanol (1:9 tissue to isopropanol by mass/volume) on ice. The homogenate was then incubated overnight at 4°C and subsequently centrifuged to […]. The resulting solution was analyzed for TG and Chol using a Hitachi 7020 automated hematochemistry system.
The samples were then washed with pure water.

[2] = system: liver of the MASH mouse models (F2 ~ 3); test: Gene expression analysis (transcriptome sequencing) in liver of MASH mouse models; assay type: in vivo, C57BL/6J mice
Description: Transcriptome sequencing was performed on the Illumina sequencing platform, and the library sequencing and biotechnological analysis were performed by Beijing Novozymes Technology Co.
To explore the mechanism by which Kylo-0603 promotes lipid metabolism, we used Illumina’s NEBNext® UtraTM RNA Library Prep Kit to examine the expression of relevant genes in the livers of the MASH mouse models (F2 ~ 3) after Kylo-0603 administration (Fig 8). We first examined the expression of THR-regulated genes, including iodothyronine deiodinase 1 (Dio1), malic enzyme 1 (Me1), and thyroid hormone responsive (Thrsp). Me1 encodes an enzyme that catalyzes the conversion of malate to pyruvate while concomitantly generating NADPH from NADP, and its upregulation promotes energy metabolism. Thrsp is mainly a nuclear protein induced by thyroid hormones, carbohydrate intake, adipose tissue differentiation and lactation and plays an important role in the regulation of lipid metabolism. […] LDL-R (low-density lipoprotein receptor) promotes the cellular uptake of LDL and facilitates cholesterol degradation. […] This finding was consistent with a dose-dependent reduction in the serum LDL-C level (Fig 9A). […] This therapeutic effect was validated by assessing liver histopathology in animal models. Kylo-0603 inhibited the genes encoding the inflammatory factors Tnfrsf1a, IL6, IL17rb, and IL17ra (Fig 9B).
Fig 9 Effects of Kylo-0603 on the expression of related genes of the MASH mouse models. Total RNA was extracted from the frozen liver tissue of the MASH mouse models (F2 ~ 3), and the mice were injected daily with saline or Kylo-0603 at a dosage of 0.1–3 mg/kg/day. Transcriptome sequencing is based on the Illumina sequencing platform. The relative expression of a gene was calculated by normalizing the true expression level of the target gene to the expression level of that gene in the control group.

in vitro [3] = details: beagle, dog, plasma
Description: (§1) We evaluated the metabolic stability of Kylo-0603 in the plasma of CD-1 mice, Sprague–Dawley (SD) rats, beagle dogs, cynomolgus monkeys, and humans. The plasma from the five species was mixed with Kylo-0603 (2 μM) and incubated at 37°C in a thermostatic water tank. The plasma concentrations of Kylo-0603 were monitored via LC-MS/MS at 0, 10, 30, 60, and 120 min.

in vitro [4] = details: human, plasma
Description: as §1

[5] = Metabolic stability in plasma (SD rats); details: SD rat plasma
Description: as §1

[6] = Metabolic stability in plasma (CD-1 mice)
Description: as §1

[7] = 3 mg/kg, 8 weeks, vs HFD + CCl4 + Vehicle
[8] = 10 mg/kg, 8 weeks, vs HFD + CCl4 + Vehicle
[9] = abstract: MASH mouse model, maximum effect

CC(=O)N[C@H]1[C@H](OCCCCCCNC(=O)CCOCC(COCCC(=O)NCCCCCCO[C@@H]2O[C@H](CO)[C@H](O)[C@H](O)[C@H]2NC(C)=O)(COCCC(=O)NCCCCCCO[C@@H]2O[C@H](CO)[C@H](O)[C@H](O)[C@H]2NC(C)=O)NC(=O)CCCCCNC(=O)COc2cc(C)c(Cc3ccc(O)c(C(C)C)c3)c(C)c2)O[C@H](CO)[C@H](O)[C@@H]1O [Kylo-0603]
decrease of fibrosis score ([1]; 3 mg/kg and 10 mg/kg, 8 weeks, vs HFD + CCl4 + Vehicle): 0.6 points
ALT decrease ([1]; 3 mg/kg, 8 weeks, serum): 73.8%
AST decrease ([1]; 3 mg/kg, 8 weeks, serum): 76.3%
decrease in ballooning degeneration score [1, 7]: 0.7 points
reduction in hepatic steatosis score [1, 7]: exceeding 1.0 points
reduction in inflammation score [1, 7]: exceeding 1.0 points
reduction of NAS (NAFLD Activity Score) [1, 7]: 3.5 points
decrease in ballooning degeneration score [1, 8]: 0.8 points
reduction in hepatic steatosis score [1, 8]: exceeding 1.0 points
reduction in inflammation score [1, 8]: exceeding 1.0 points
reduction of NAS (NAFLD Activity Score) [1, 8]: 3.7 points
TSH levels ([1]; 8 weeks, blood): decreasing trends
levels of thyroid hormones T3, fT3, T4 and fT4 ([1]; 8 weeks, blood): increasing trends
Ballooning score ([1]; HFD + CCl4, 0.1 mg/kg, 8 weeks): 1.4 ± 0.5
Fibrosis Score ([1]; HFD + CCl4, 0.1 mg/kg, 8 weeks): 2.8 ± 0.4
Lobular inflammation score ([1]; HFD + CCl4, 0.1 mg/kg, 8 weeks): 2.4 ± 0.5
NAFLD activity score ([1]; HFD + CCl4, 0.1 mg/kg, 8 weeks): 4.7 ± 0.9
Steatosis score ([1]; HFD + CCl4, 0.1 mg/kg, 8 weeks): 0.8 ± 1.0
Ballooning score ([1]; HFD + CCl4, 0.3 mg/kg, 8 weeks): 1.4 ± 0.5
Fibrosis Score ([1]; HFD + CCl4, 0.3 mg/kg, 8 weeks): 2.3 ± 0.5
Lobular inflammation score ([1]; HFD + CCl4, 0.3 mg/kg, 8 weeks): 2.2 ± 0.4
NAFLD activity score ([1]; HFD + CCl4, 0.3 mg/kg, 8 weeks): 4.0 ± 0.9
Steatosis score ([1]; HFD + CCl4, 0.3 mg/kg, 8 weeks): 0.3 ± 0.5
Ballooning score ([1]; HFD + CCl4, 1 mg/kg, 8 weeks): 2.0 ± 0.0
Fibrosis Score ([1]; HFD + CCl4, 1 mg/kg, 8 weeks): 2.3 ± 0.5
Lobular inflammation score ([1]; HFD + CCl4, 1 mg/kg, 8 weeks): 2.2 ± 0.4
NAFLD activity score ([1]; HFD + CCl4, 1 mg/kg, 8 weeks): 4.3 ± 0.5
Steatosis score ([1]; HFD + CCl4, 1 mg/kg, 8 weeks): 0.1 ± 0.3
Ballooning score ([1]; HFD + CCl4, 3 mg/kg, 8 weeks): 1.1 ± 0.3
Fibrosis Score ([1]; HFD + CCl4, 3 mg/kg, 8 weeks): 2.0 ± 0.0
Lobular inflammation score ([1]; HFD + CCl4, 3 mg/kg, 8 weeks): 1.4 ± 0.5
NAFLD activity score ([1]; HFD + CCl4, 3 mg/kg, 8 weeks): 2.8 ± 1.0
Steatosis score ([1]; HFD + CCl4, 3 mg/kg, 8 weeks): 0.2 ± 0.4
Ballooning score ([1]; HFD + CCl4, 10 mg/kg, 8 weeks): 1.0 ± 0.7
Fibrosis Score ([1]; HFD + CCl4, 10 mg/kg, 8 weeks): 2.0 ± 0.0
Lobular inflammation score ([1]; HFD + CCl4, 10 mg/kg, 8 weeks): 1.1 ± 0.5
NAFLD activity score ([1]; HFD + CCl4, 10 mg/kg, 8 weeks): 2.6 ± 1.0
Steatosis score ([1]; HFD + CCl4, 10 mg/kg, 8 weeks): 0.4 ± 1.0
decrease of fibrosis score ([1]; abstract): 0.6 points
decrease of ballooning score ([1]; abstract, maximum effect): 0.8 points
decrease of inflammation score ([1]; abstract, maximum effect): 1.8 points
reduction of NAS ([1]; abstract, maximum effect): up to 3.7 points
lowering of LDL-C levels [1, 9]: up to 88.2%
lowering of serum cholesterol levels [1, 9]: ≤ 69.2%
Atgl expression [2]: dose-responsive elevation
Cpt1a expression [2]: dose-dependent upregulation
Pdk4 expression [2]: significant increases
Srebf1 and Scd1 expression [2]: coordinated downregulation
genes encoding the inflammatory factors Tnfrsf1a, IL6, IL17rb, IL17ra [2]: inhibited
LDL-R gene expression ([2]; dose-dependent): upregulated
expression of Dio1, Thrsp and Me1 ([2]; dose-dependent): significantly upregulated
peroxisome-related genes ([2]; dose-dependent): upregulation
expression of collagen synthesis genes ([2]; with increasing doses): significantly suppressed
half-life at 2 μM (in vitro [3]): 5.93 h
half-life at 2 μM (in vitro [4]): > 6.21 h
plasma stability [5]: stable
plasma stability [6]: stable
